Drawing on patent US9815831B2, “3,5-disubstituted-3H-imidazo[4,5-B]pyridine and 3,5-disubstituted-3H-[1,2,3]triazolo[4,5-B] pyridine compounds as modulators of c-Met protein kinases” (Rhizen Pharmaceuticals SA, priority 2012, dated 2017), this text covers inhibition, GI50 and IC50 for 21 molecules.

For assay [1], the target named is T1, human recombinant Met kinase (Homo sapiens, UniProt P08581).
T1 construct: purchased Cell Signalling Technology, Beverly, Mass
Put plainly: Colorimetric determination of c-Met kinase activity (HTScan Met Kinase Assay Kit). In kind it is biochemical. As to conditions: for inhibition: cells marked *: tested @ 300 nM, read-out: c-Met Enzyme % inhibition; for inhibition at 0.1 µM: 100 nM (cells without *), read-out: c-Met Enzyme % inhibition @ 100 nM. An excerpt: 1. MET Kinase Assay Protocol:
Colorimetric Determination of c-Met Kinase Activity
The receptor tyrosine kinase c-Met is a heterodimeric transmembrane glycoprotein involved in several cellular processes that aid in tumor progression. Phosphorylation of the tyrosine residues in the c-Met kinase domain is critical for its activity and the resulting down-stream effects. The colorimetric assay allows detection of the phosphorylated form of a biotinylated peptide upon activation of human recombinant Met kinase.
MET Kinase Assay Protocol:
c-Met Kinase activity shall be determined using an HTScan® Met Kinase Assay Kit (Cell Signalling Technology, Beverly, Mass.) with modifications. All incubations are carried out at room temperature. Briefly, 12.5 μl of a 4× reaction cocktail (DTT/Kinase buffer containing appropriate quantity of human Met kinase) is added to each well of a 96-well plate containing 12.5 μl pre-diluted compound of interest and incubated for 5 minutes. After the initial incubation, 25 μl/well of 2×ATP/biotinylated peptide is added and incubated for an additional 30 minutes. The reaction is terminated by the addition of 50 μl/well stop buffer (50 mM EDTA, pH 8.0). The reaction mixture (25 μl/well) is then transferred to a streptavidin coated plate (Perkin Elmer, Cat#4009-0010) containing 75 μl dH2O and incubated for 60 minutes. The plate is washed with 200 μl/well wash buffer (1×PBS, 0.05% Tween-20). After washing, 100 μl/well phospho-tyrosine mAb (1:1000 in wash buffer containing 1% BSA) is added and incubated for 60 minutes. After another round of washes, 100 μl/well europium labelled anti-mouse IgG (1:500 in wash buffer containing 1% BSA) is added and incubated for an additional 30 minutes. Following additional washes, 100 μl/well Delfia^(R) enhancement solution (Perkin Elmer, Cat#1244-105) is added and incubated for 45 minutes. Florescence is measured on a microplate reader (BMG Labtech., Germany) at 340 nm (excitation) and 615 nm (emission) for calculating % inhibition. Data generated can be analyzed further using Graphpad Prism (Graphpad software, San Diego Calif.) for determination of IC50.
Results: The results are as given below in Table 4A, 4B and 4C as % Inhibition or IC50 of c-Met

Assay [2] deals with MKN-45. The assay is described as follows: Inhibition of MKN-45 proliferation (MTT). As to conditions: Homo sapiens, MKN-45 proliferation; for GI50: read-out: MKN45 GI50; for inhibition at 0.1 µM: 100 nM, read-out: MKN45 % inhibition @ 100 nM. In kind it is cell-based, human. As for the experimental part: 3. Inhibition of MKN-45 Proliferation:
Cell proliferation assays were carried out using the high Met expressing human gastric adenocarcinoma cell line, MKN-45, according to the following schedule: • Day 1: Cells were plated in 96-well plates in complete growth medium. • Day 2: Compounds at desired concentrations were added. • Day 5: Cell viability was determined using the 3-[4,5-dimethylthiazol-2-yl]-2,5-diphenyltetrazolium bromide (MTT) dye reduction test. Results: The results are as given as % Inhibition of MKN-45 proliferation at 100 nM and GI50 values in Table 4A to 4C above. 4. Inhibition of c-Met Kinase Phosphorylation in MKN-45 Cells: […]

For assay [3], the target named is T1, human recombinant Met kinase. Put plainly: Colorimetric determination of c-Met kinase activity (HTScan Met Kinase Assay Kit). The assay is classed as biochemical. As to conditions: read-out: c-Met Enzyme IC50.

What is called inhibition is the relative decrease from the control value, in per cent. As usually defined, the GI50 is the concentration at which growth is held to half of that of the control. Broadly, the IC50 is the concentration needed to halve the response being measured.

Read-outs that look alike come from different tables or passages of the source. Bounds are passed on as bounds.

T1 sequence (P08581 25-1390): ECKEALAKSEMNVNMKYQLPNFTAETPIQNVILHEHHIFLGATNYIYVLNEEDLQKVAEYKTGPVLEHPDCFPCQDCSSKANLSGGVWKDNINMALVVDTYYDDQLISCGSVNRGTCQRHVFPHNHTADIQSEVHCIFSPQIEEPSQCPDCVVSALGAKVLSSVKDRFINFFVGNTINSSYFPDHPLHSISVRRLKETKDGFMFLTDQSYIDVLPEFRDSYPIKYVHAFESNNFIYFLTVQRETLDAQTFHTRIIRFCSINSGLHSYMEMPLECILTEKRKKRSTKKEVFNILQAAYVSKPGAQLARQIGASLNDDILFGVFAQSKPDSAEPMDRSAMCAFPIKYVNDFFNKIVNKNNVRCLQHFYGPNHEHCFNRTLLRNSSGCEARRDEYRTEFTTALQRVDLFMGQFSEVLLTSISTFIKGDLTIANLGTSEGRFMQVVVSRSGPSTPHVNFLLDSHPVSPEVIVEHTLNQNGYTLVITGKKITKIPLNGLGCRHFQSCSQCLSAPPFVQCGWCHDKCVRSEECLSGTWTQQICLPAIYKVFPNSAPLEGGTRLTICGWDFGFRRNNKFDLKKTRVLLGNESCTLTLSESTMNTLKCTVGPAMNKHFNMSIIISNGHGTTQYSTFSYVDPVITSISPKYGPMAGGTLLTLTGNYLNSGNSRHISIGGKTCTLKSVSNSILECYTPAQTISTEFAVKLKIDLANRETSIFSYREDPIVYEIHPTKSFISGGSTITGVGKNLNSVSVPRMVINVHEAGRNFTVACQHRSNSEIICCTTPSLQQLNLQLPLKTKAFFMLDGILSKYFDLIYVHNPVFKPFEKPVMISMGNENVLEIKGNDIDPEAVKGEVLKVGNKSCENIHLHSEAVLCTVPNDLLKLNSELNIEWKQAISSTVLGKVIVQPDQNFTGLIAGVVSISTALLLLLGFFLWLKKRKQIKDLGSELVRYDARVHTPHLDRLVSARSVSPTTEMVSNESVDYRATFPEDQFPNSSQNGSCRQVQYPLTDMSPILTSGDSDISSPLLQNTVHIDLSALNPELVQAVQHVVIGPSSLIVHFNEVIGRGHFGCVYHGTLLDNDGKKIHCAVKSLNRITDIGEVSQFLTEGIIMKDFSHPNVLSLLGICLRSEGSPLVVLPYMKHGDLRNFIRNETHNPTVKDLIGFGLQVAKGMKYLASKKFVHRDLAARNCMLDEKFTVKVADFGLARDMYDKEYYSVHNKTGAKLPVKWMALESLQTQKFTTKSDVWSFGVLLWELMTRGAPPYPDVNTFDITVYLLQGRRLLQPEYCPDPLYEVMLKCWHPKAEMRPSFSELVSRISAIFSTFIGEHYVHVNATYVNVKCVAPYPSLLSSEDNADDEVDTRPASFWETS

`CON=C(C)c1ccc2nnn(Cc3cc4cccnc4cc3F)c2n1` (racemic) [Example 60, 1-(3-((7-fluoroquinolin-6-yl)methyl)-3H-[1,2,3]triazolo[4,5-b]pyridin-5-yl) ethanone O-methyl oxime]: the inhibition in assay [1] (Table 4A) was in the range of 75 to 100%. For the same molecule, in assay [2] (MKN-45, Table 4A), the GI50 was 50 to 100 nM. For the same molecule, in assay [3] (Table 4A), the IC50 lay in the range of 25 to 50 nM.

`C/C(=N\NC(N)=S)c1ccc2nnn(Cc3ccc4ncccc4c3)c2n1` [Example 50, 2-(1-(3-(quinolin-6-ylmethyl)-3H-[1,2,3]triazolo[4,5-b]pyridin-5-yl)ethylidene)hydrazinecarbothioamide]: the inhibition in assay [1] (Table 4A) is 75 to 100%. Besides, in assay [2] (MKN-45, Table 4A), the inhibition at 0.1 µM was 75 to 100% and the GI50 lay in the range of 25 to 50 nM. For the same molecule, the IC50 in assay [3] (Table 4A) was 25 to 50 nM.

Take `C/C(=N\Nc1ccccn1)c1ccc2nnn(Cc3ccc4ncccc4c3)c2n1` [Example 51, 6-((5-(1-(2-(pyridin-2-yl)hydrazono)ethyl)-3H-[1,2,3]triazolo[4,5-b]pyridin-3-yl)methyl)quinoline]: the inhibition in assay [1] (Table 4A) is below 25%. The inhibition at 0.1 µM in assay [2] (MKN-45, Table 4A) was below 25%.

As for `C/C(=N\NC(=O)OC(C)(C)C)c1ccc2nnn(Cc3ccc4ncccc4c3)c2n1` [Example 53, tert-butyl 2-(1-(3-(quinolin-6-ylmethyl)-3H-[1,2,3]triazolo[4,5-b]pyridin-5-yl)ethylidene)hydrazinecarboxylate], the inhibition in assay [1] (Table 4A) is below 25%. For the same molecule, the inhibition at 0.1 µM in assay [2] (MKN-45, Table 4A) was below 25%.

With `COC(=O)N/N=C(\C)c1ccc2nnn(Cc3ccc4ncccc4c3)c2n1` [Example 58, Methyl 2-(1-(3-(quinolin-6-ylmethyl)-3H-[1,2,3]triazolo[4,5-b]pyridin-5-yl)ethylidene)hydrazinecarboxylate], the inhibition in assay [1] (Table 4A) is below 25%. Further, in assay [2] (MKN-45, Table 4A), the inhibition at 0.1 µM is 25 to 50%.

Regarding `CC(=NO)c1ccc2nnn(Cc3cc4cccnc4cc3F)c2n1` [Example 59, 1-(3-((7-fluoroquinolin-6-yl)methyl)-3H-[1,2,3]triazolo[4,5-b]pyridin-5-yl) ethanone oxime], the GI50 in assay [2] (MKN-45, Table 4A) was in the range of 25 to 50 nM. Besides, in assay [3] (Table 4A), the IC50 was in the range of 25 to 50 nM.

`C/C(=N\OCCO)c1ccc2nnn(Cc3ccc4ncccc4c3)c2n1` [Example 62, 1-(3-(quinolin-6-ylmethyl)-3H-[1,2,3]triazolo[4,5-b]pyridin-5-yl)ethanone O-2-hydroxyethyl oxime]: the inhibition in assay [1] (Table 4A) is below 25%. Besides, the inhibition at 0.1 µM in assay [2] (MKN-45, Table 4A) is below 25%.

In the case of `CONC(=O)c1c(F)cc(-c2ccc3ncn(Cc4ccc5ncccc5c4)c3n2)cc1F` [Example 105, 2,6-difluoro-N-methoxy-4-(3-(quinolin-6-ylmethyl)-3H-imidazo[4,5-b]pyridin-5-yl)benzamide], the inhibition in assay [1] (Table 4B) lay in the range of 25 to 50%. For the same molecule, the inhibition at 0.1 µM in assay [2] (MKN-45, Table 4B) is below 25%.

Turning to `C/C(=N\NC(N)=O)c1ccc2ncn(Cc3ccc4ncccc4c3)c2n1` [Example 107, 2-(1-(3-(quinolin-6-ylmethyl)-3H-imidazo[4,5-b]pyridin-5-yl)ethylidene)hydrazinecarboxamide], in assay [2] (MKN-45, Table 4B), the inhibition at 0.1 µM was below 25% and the GI50 is 250 to 1000 nM. Moreover, the concentration for half-maximal inhibition (IC50) in assay [3] (Table 4B) lay within 100 to 250 nM.

Take `C/C(=N\NC(N)=S)c1ccc2ncn(Cc3ccc4ncccc4c3)c2n1` [Example 108, 2-(1-(3-(quinolin-6-ylmethyl)-3H-imidazo[4,5-b]pyridin-5-yl)ethylidene)hydrazinecarbothioamide]: in assay [1] (Table 4B), the inhibition is below 25%. For the same molecule, the inhibition at 0.1 µM in assay [2] (MKN-45, Table 4B) was below 25%.

On to `Cc1cc(-c2ccc3ncn(Cc4ccc5ncccc5c4)c3n2)ccc1C(=O)NOCCO` [Example 111, N-(2-Hydroxy-ethoxy)-2-methyl-4-(3-quinolin-6-ylmethyl-3H-imidazo[4,5-b]pyridin-5-yl)-benzamide], for which the inhibition at 0.1 µM in assay [1] (Table 4B) was 75 to 100%; in assay [2] (MKN-45, Table 4B) it was below 25%.

For `Cc1cc(-c2ccc3ncn(Cc4ccc5ncccc5c4)c3n2)ccc1C(=O)NOCC(C)(C)O` [Example 112, N-(2-Hydroxy-2-methyl-propoxy)-2-methyl-4-(3-quinolin-6-ylmethyl-3H-imidazo[4,5-b]pyridin-5-yl)-benzamide], the inhibition at 0.1 µM in assay [1] (Table 4B) is 75 to 100%; in assay [2] (MKN-45, Table 4B), below 25%.

In the case of `NC(=O)c1c(F)cc(-c2ccc3nnn(Cc4ccc5ncccc5c4)c3n2)cc1F` [Example 1003, 2,6-difluoro-4-(3-(quinolin-6-ylmethyl)-3H-[1,2,3]triazolo[4,5-b]pyridin-5-yl)benzamide 2,2,2-trifluoroacetate], in assay [1] (Table 4C), the inhibition is 75 to 100%. Moreover, the IC50 in assay [3] (Table 4C) is below 25 nM.

`NC(=O)c1c(F)cc(-c2ccc3nnn(Cc4cc5cccnc5cc4F)c3n2)cc1F` [Example 1007, 2,6-difluoro-4-(3-((7-fluoroquinolin-6-yl)methyl)-3H-[1,2,3]triazolo[4,5-b]pyridin-5-yl)benzamide]: in assay [2] (MKN-45, Table 4C), the inhibition at 0.1 µM was 75 to 100% and the GI50 was below 25 nM. Besides, in assay [3] (Table 4C), the IC50 was below 25 nM.

As for `CCNC(=O)c1c(F)cc(-c2ccc3ncn(Cc4ccc5ncccc5c4)c3n2)cc1F` [Example 1016, N-ethyl-2,6-difluoro-4-(3-(quinolin-6-ylmethyl)-3H-imidazo[4,5-b]pyridin-5-yl)benzamide], the inhibition in assay [1] (Table 4C) fell in the range of 25 to 50%. For the same molecule, the inhibition at 0.1 µM in assay [2] (MKN-45, Table 4C) is below 25%.

For the molecule `CNC(=O)c1ccc(-c2ccc3ncn(Cc4ccc5ncccc5c4)c3n2)cc1Cl` [Example 1017, 2-chloro-N-methyl-4-(3-(quinolin-6-ylmethyl)-3H-imidazo[4,5-b]pyridin-5-yl)benzamide], the inhibition in assay [1] (Table 4C) lay in the range of 25 to 50%. The inhibition at 0.1 µM in assay [2] (MKN-45, Table 4C) was below 25%.

For the molecule `Cc1cc(-c2ccc3ncn(Cc4ccc5ncccc5c4)c3n2)ccc1C(N)=O` [Example 1018, 2-methyl-4-(3-(quinolin-6-ylmethyl)-3H-imidazo[4,5-b]pyridin-5-yl) benzamide], the inhibition in assay [1] (Table 4C) was in the range of 50 to 75%. For the same molecule, the inhibition at 0.1 µM in assay [2] (MKN-45, Table 4C) lay in the range of 25 to 50%.

`Cc1nc2ccc(-c3ccc(C(N)=O)c(Cl)c3)nc2n1Cc1ccc2ncccc2c1` [Example 1020, 2-chloro-4-(2-methyl-3-(quinolin-6-ylmethyl)-3H-imidazo[4,5-b]pyridin-5-yl)benzamide]: the inhibition in assay [1] (Table 4C) is below 25%. Moreover, the inhibition at 0.1 µM in assay [2] (MKN-45, Table 4C) lay within 50 to 75%.

For the molecule `CC(c1ccc2ncccc2c1)n1cnc2ccc(-c3ccc(C(N)=O)c(Cl)c3)nc21` (stereo not drawn) [Example 1021, 2-chloro-4-(3-(1-(quinolin-6-yl)ethyl)-3H-imidazo[4,5-b]pyridin-5-yl)benzamide], the inhibition in assay [1] (Table 4C) is below 25%. Further, the inhibition at 0.1 µM in assay [2] (MKN-45, Table 4C) was in the range of 25 to 50%.

`NC(=O)c1ccc(-c2ccc3ncn(Cc4cc5cccnc5cc4F)c3n2)cc1Cl` [Example 1022, 2-chloro-4-(3-((7-fluoroquinolin-6-yl)methyl)-3H-imidazo[4,5-b]pyridin-5-yl)benzamide]: in assay [2] (MKN-45, Table 4C), the inhibition at 0.1 µM is 50 to 75% and the GI50 lay in the range of 50 to 100 nM. In assay [3] (Table 4C), the IC50 is below 25 nM.

As for `NC(=O)c1ccc(-c2ccc3ncn(Cc4c(F)cc5ncccc5c4F)c3n2)cc1C(F)(F)F` [Example 1028, 4-[3-(5,7-Difluoro-quinolin-6-ylmethyl)-3H-imidazo[4,5-b]pyridin-5-yl]-2-trifluoromethyl-benzamide], the inhibition at 0.1 µM is 75 to 100% in assay [1] (Table 4C) and 75 to 100% in assay [2] (MKN-45, Table 4C).
